From patent US10638756B2, “Molecules having pesticidal utility, and intermediates, compositions, and processes, related thereto” (Dow AgroSciences LLC, priority 2017, dated 2020)

Key:
Type in all cases: in vivo
[1] = system: Cabbage Looper (Trichoplusia ni); assay: Bioassay on Cabbage Looper (CL), 128-well diet tray assay; details: 168 h, 50 μg/cm^2 on artificial diet, second instar larvae, five to seven days, read-out: CL % Control (or Mortality) rating
Procedure, shortened: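 Diet tray, 2nd instar, 1–5 larvae/well; 50 μg/cm^2 compound surface-applied (acetone:water 90:10), dried; 8 wells/treatment; 25° C, 14:10 L:D, 5–7 d; % mortality, mean of 8 wells.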

[2] = system: Beet Armyworm (Spodoptera exigua); assay: Bioassay on Beet Armyworm (BAW), 128-well diet tray assay; details: Spodoptera exigua, 168 h; 50 μg/cm^2 on artificial diet, second instar larvae, five to seven days; read-out: BAW % Control (or Mortality) rating
[3] = system: Yellow Fever Mosquito (Aedes aegypti); details: about 1 day-old larvae, 3 days, scored on mortality
Procedure: Certain molecules disclosed in this document were tested against YFM using procedures described in the following paragraph. In the reporting of the results, the “GPA & YFM Rating Table” was used (See Table Section).
Master plates containing 400 μg of a molecule dissolved in 100 μL of dimethyl sulfoxide (DMSO) (equivalent to a 4000 ppm solution) are used. A master plate of assembled molecules contains 15 μL per well. To this plate, 135 μL of a 90:10 water/acetone mixture is added to each well. A robot (Biomek® NXP Laboratory Automation Workstation) is programmed to dispense 15 μL aspirations from the master plate into an empty 96-well shallow plate (“daughter” plate). There are 6 reps (“daughter” plates) created per master. The created “daughter” plates are then immediately infested with YFM larvae.
The day before plates are to be treated, mosquito eggs are placed in Millipore water containing liver powder to begin hatching (4 g. into 400 mL). After the “daughter” plates are created using the robot, they are infested with 220 μL of the liver powder/larval mosquito mixture (about 1 day-old larvae). After plates are infested with mosquito larvae, a non-evaporative lid is used to cover the plate to reduce drying. Plates are held at room temperature for 3 days prior to grading. After 3 days, each well is observed and scored based on mortality. The results are indicated in the table entitled “Table ABC: Biological Results” (See Table Section).

SMILES	mortality at 50 µg/cm2 [1]	mortality at 50 µg/cm2 [2]	YFM % Control (or Mortality) rating [3]
O=C(NNCc1ccccc1)c1ccc(/C(F)=C/C(c2cc(Cl)c(Cl)c(Cl)c2)C(F)(F)F)cc1C(F)(F)F (stereo not drawn) [F54, (Z)—N′-Benzyl-4-(1,4,4,4-tetrafluoro-3-(3,4,5-trichlorophenyl)but-1-en-1-yl)-2-(trifluoromethyl)benzohydrazide]	50 to 100%	50 to 100%	A (80-100)
CN(NC(=O)c1ccc(/C(F)=C/C(c2ccc(Cl)c(Cl)c2)C(F)(F)F)cc1C(F)(F)F)c1ncccn1 (stereo not drawn) [F8, (Z)-4-(3-(3,4-Dichlorophenyl)-1,4,4,4-tetrafluorobut-1-en-1-yl)-N′-methyl-N′-(pyrimidin-2-yl)-2-(trifluoromethyl)benzohydrazideazide]	50 to 100%	50 to 100%	A (80-100)
O=C(NNc1ccccc1)c1ccc(/C(F)=C/C(c2cc(Cl)c(Cl)c(Cl)c2)C(F)(F)F)cc1C(F)(F)F (stereo not drawn) [F133, (Z)—N′-Phenyl-4-(1,4,4,4-tetrafluoro-3-(3,4,5-trichlorophenyl)but-1-en-1-yl)-2-(trifluoromethyl)benzohydrazide]	50 to 100%	50 to 100%	A (80-100)
COc1ccccc1NNC(=O)c1ccc(/C(F)=C/C(c2cc(Cl)c(Cl)c(Cl)c2)C(F)(F)F)cc1C(F)(F)F (stereo not drawn) [F14, (Z)—N′-(2-Methoxyphenyl)-4-(1,4,4,4-tetrafluoro-3-(3,4,5-trichlorophenyl)but-1-en-1-yl)-2-(trifluoromethyl)benzohydrazide]	50 to 100%	50 to 100%	A (80-100)
O=C(NNc1ncccc1Cl)c1ccc(/C(F)=C/C(c2cc(Cl)c(Cl)c(Cl)c2)C(F)(F)F)cc1C(F)(F)F (stereo not drawn) [F99, (Z)—N′-(3-Chloropyridin-2-yl)-4-(1,4,4,4-tetrafluoro-3-(3,4,5-trichlorophenyl)but-1-en-1-yl)-2-(trifluoromethyl)benzohydrazide]	50 to 100%	50 to 100%	A (80-100)
C#CCN(NC(=O)c1ccc(/C(F)=C/C(c2cc(Cl)c(Cl)c(Cl)c2)C(F)(F)F)cc1C)c1ncccn1 (stereo not drawn) [F148, (Z)-2-Methyl-N′-(prop-2-yn-1-yl)-N′-(pyrimidin-2-yl)-4-(1,4,4,4-tetrafluoro-3-(3,4,5-trichlorophenyl)but-1-en-1-yl)benzohydrazide]	50 to 100%	50 to 100%	A (80-100)
CN(NC(=O)c1ccc(/C(F)=C/C(c2cc(Cl)c(Cl)c(Cl)c2)C(F)(F)F)cc1Br)c1ncccn1 (stereo not drawn) [F102, (Z)-2-Bromo-N′-methyl-N′-(pyrimidin-2-yl)-4-(1,4,4,4-tetrafluoro-3-(3,4,5-trichlorophenyl)but-1-en-1-yl)benzohydrazide]	50 to 100%	50 to 100%	A (80-100)
O=C(NNc1ncccn1)c1ccc(/C(F)=C/C(c2ccc(Br)c(C(F)(F)F)c2)C(F)(F)F)cc1C(F)(F)F (stereo not drawn) [F78, (Z)-4-(3-(4-Bromo-3-(trifluoromethyl)phenyl)-1,4,4,4-tetrafluorobut-1-en-1-yl)-N′-(pyrimidin-2-yl)-2-(trifluoromethyl)benzohydrazide]	50 to 100%	50 to 100%	A (80-100)
CN(C)N(CC(=O)NCC(F)(F)F)C(=O)c1ccc(/C(F)=C/C(c2cc(Cl)c(Cl)c(Cl)c2)C(F)(F)F)cc1C(F)(F)F (stereo not drawn) [F184, (Z)-2-(2,2-dimethyl-1-(4-(1,4,4,4-tetrafluoro-3-(3,4,5-trichlorophenyl)but-1-en-1-yl)-2-(trifluoromethyl)benzoyl)hydrazinyl)-N-(2,2,2-trifluoroethyl)acetamide]	50 to 100%	50 to 100%	A (80-100)
O=C(NNc1ncccn1)c1ccc(/C(F)=C/C(c2cc(Cl)c(Cl)c(Cl)c2)C(F)(F)F)cc1Br (stereo not drawn) [F128, (Z)-2-Bromo-N′-(pyrimidin-2-yl)-4-(1,4,4,4-tetrafluoro-3-(3,4,5-trichlorophenyl)but-1-en-1-yl)benzohydrazide]	50 to 100%	50 to 100%	A (80-100)
O=C(NNc1ncccn1)c1ccc(/C(F)=C/C(c2ccc(Br)c(Cl)c2)C(F)(F)F)cc1C(F)(F)F (stereo not drawn) [F16, (Z)-4-(3-(4-Bromo-3-chlorophenyl)-1,4,4,4-tetrafluorobut-1-en-1-yl)-N′-(pyrimidin-2-yl)-2-(trifluoromethyl)benzohydrazide]	50 to 100%	50 to 100%	A (80-100)
COc1ccc(NNC(=O)c2ccc(/C(F)=C/C(c3cc(Cl)c(Cl)c(Cl)c3)C(F)(F)F)cc2C(F)(F)F)cc1 (stereo not drawn) [F126, (Z)—N′-(4-Methoxyphenyl)-4-(1,4,4,4-tetrafluoro-3-(3,4,5-trichlorophenyl)but-1-en-1-yl)-2-(trifluoromethyl)benzohydrazide]	50 to 100%	50 to 100%	A (80-100)
O=C(NNc1cc(F)ccc1F)c1ccc(/C(F)=C/C(c2cc(Cl)c(Cl)c(Cl)c2)C(F)(F)F)cc1C(F)(F)F (stereo not drawn) [F134, (Z)—N′-(2,5-Difluorophenyl)-4-(1,4,4,4-tetrafluoro-3-(3,4,5-trichlorophenyl)but-1-en-1-yl)-2-(trifluoromethyl)benzohydrazide]	50 to 100%	50 to 100%	A (80-100)
CN(NC(=O)c1ccc(/C(F)=C/C(c2cc(Cl)c(Cl)c(Cl)c2)C(F)(F)F)cc1C(F)(F)F)c1nccs1 (stereo not drawn) [F158, (Z)—N′-methyl-4-(1,4,4,4-tetrafluoro-3-(3,4,5-trichlorophenyl)but-1-en-1-yl)-N′-(thiazol-2-yl)-2-(trifluoromethyl)benzohydrazide]	50 to 100%	50 to 100%	A (80-100)
O=C(NNc1c(F)cccc1Cl)c1ccc(/C(F)=C/C(c2cc(Cl)c(Cl)c(Cl)c2)C(F)(F)F)cc1C(F)(F)F (stereo not drawn) [F1, (Z)—N′-(2-chloro-6-fluorophenyl)-4-(1,4,4,4-tetrafluoro-3-(3,4,5-trichlorophenyl)but-1-en-1-yl)-2-(trifluoromethyl)benzohydrazide]	50 to 100%	50 to 100%	A (80-100)
N#Cc1cccc(NNC(=O)c2ccc(/C(F)=C/C(c3cc(Cl)c(Cl)c(Cl)c3)C(F)(F)F)cc2C(F)(F)F)c1 (stereo not drawn) [F100, (Z)—N′-(3-Cyanophenyl)-4-(1,4,4,4-tetrafluoro-3-(3,4,5-trichlorophenyl)but-1-en-1-yl)-2-(trifluoromethyl)benzohydrazide]	50 to 100%	50 to 100%	A (80-100)
O=C(NNc1ccc(F)cc1)c1ccc(/C(F)=C/C(c2cc(Cl)c(Cl)c(Cl)c2)C(F)(F)F)cc1C(F)(F)F (stereo not drawn) [F52]	50 to 100%	50 to 100%	A (80-100)
O=C(NNc1cccc(C(F)(F)F)c1)c1ccc(/C(F)=C/C(c2cc(Cl)c(Cl)c(Cl)c2)C(F)(F)F)cc1C(F)(F)F (stereo not drawn) [F3, (Z)-4-(1,4,4,4-Tetrafluoro-3-(3,4,5-trichlorophenyl)but-1-en-1-yl)-2-(trifluoromethyl)-N′-(3-(trifluoromethyl)phenyl)benzohydrazide]	50 to 100%	50 to 100%	A (80-100)
